# What was measured:
# [1] = test system: biological processes (GO), cardiac tissue; assay: Biological processes (GO) affected by altered gene expression in cardiac tissue; format: in vivo, mice
# cardiomyocytes = assay: Cardiomyocyte apoptosis, TUNEL (Example 6); format: in vivo, Sprague-Dawley rats
# Method: Cardiomyocyte apoptosis. Immunochemical detection of apoptotic cells was performed using the terminal deoxynucleotidyl transferase-medicated dUTP nick-end labeling (TUNEL) method. Malik et al. […] The sections were incubated with mouse monoclonal antibody recognizing cardiac myosin heavy chain to specifically detect apoptotic cardiomyocytes. The fluorescence staining was viewed with a confocal laser microscope. The number of apoptotic cells was counted and expressed as a percent of the total myocyte population. At the end of each experiment the hearts were either subjected to TTC staining to determine infarct size or TUNEL staining to detect apoptosis.
# [2] = test system: isolated perfused rat hearts; assay: Myocardial infarct size, TTC staining (Example 6); format: in vivo, Sprague-Dawley rats
# Method: Infarct size estimation. Infarct size was measured using the triphenyl tetrazolium chloride (TTC) staining method. Malik et al. […] After two hours of reperfusion, 40 ml of 1% (w/v) solution of TTC in phosphate buffer was infused into the aortic cannula, and the heart samples were stored at −70° C. for subsequent analysis. Sections (0.8 mm) of frozen heart were fixed in 2% paraformaldehyde, placed between two cover slips and digitally imaged using a Microtek ScanMaker 600z (Microtek, USA). To quantitate the areas of infarct in pixels, a standard National Institutes of Health image program was used. The infarct size was quantified and expressed in pixels. At the end of each experiment the hearts were either subjected to TTC staining to determine infarct size or TUNEL staining to detect apoptosis.
# [3] = test system: miRNA expression, rat heart; assay: Global miRNA expression profiling (TLDA array) in ischemia-reperfused rat heart; details: for miR-21 expression, up: vs basal level control heart
# Method: Global miRNA expression profiling in ischemia-reperfused rat heart. MicroRNA profiles were analyzed by TLDA array specific for 586 miRNA and five endogeneous control for rat.
# Male Sprague-Dawley rats weighing between 250 and 300 g were fed ad libitum regular rat chow with free access to water until the start of the experimental procedure.
# Micro RNA isolation and cDNA preparation. Total RNA from rat heart samples were isolated using Trizol reagent (Invitrogen) and further purified using mirVANA miRNA isolation kit (Ambion).
# Profiling of miRNA expression. miRNA expression profiling were carried out using quantitative real-time PCR method by TaqManH Gene Signature Rodent Arrays on a 384 well micro fluidic card in 7900HT Realtime PCR machine (Applied Biosystem, Foster City) according to manufacturer's recommendation. Each miRNA were quantified by two specific amplicon primers and one specific probe. […] In addition, each array contains six control assays—five carefully selected candidate endogenous control assays, and one negative control assay.
# Analyses of miRNA gene expression data. Realtime PCR data expressed as Ct values from array A and B were combined using R script (provided by GeneSpring Informatics Support Team) and processed using GeneSpringGX 11.0.2 software (Agilent Technologies, Santa Clara).
smiles,measurement,setting,value
"Oc1ccc(/C=C/c2cc(O)cc(O)c2)cc1 [resveratrol, 3,4′,5-trihydroxy-trans-stilbene]","genes changed, GO: 0006596 Polyamine Biosynthetic Process",[1]; 5 genes in series,2
same,"genes changed, GO: 0006625 Protein Targeting To Peroxisome",[1]; 5 genes in series,2
same,"genes changed, GO: 0006983 ER Overload Response",[1]; 5 genes in series,2
same,"genes changed, GO: 0006353 Transcription Termination",[1]; 6 genes in series,2
same,"genes changed, GO: 0045351 Interferon Type I Biosynthetic Process",[1]; 6 genes in series,2
same,"genes changed, GO: 0001958 Endochondral Ossification",[1]; 8 genes in series,2
same,"genes changed, GO: 0007091 Mitotic Metaphase/Anaphase Transition",[1]; 8 genes in series,2
same,"genes changed, GO: 0007143 Female Meiosis",[1]; 8 genes in series,2
same,"genes changed, GO: 0045577 Regulation Of B Cell Differentiation",[1]; 8 genes in series,2
same,"genes changed, GO: 0046330 Positive Regulation Of JNK Cascade",[1]; 8 genes in series,2
same,"genes changed, GO: 0006825 Copper Ion Transport",[1]; 9 genes in series,3
same,"genes changed, GO: 0033554 Cellular Response To Stress",[1]; 14 genes in series,3
same,"genes changed, GO: 0006888 ER To Golgi Vesicle-Mediated Transport",[1]; 16 genes in series,3
same,"genes changed, GO: 0006919 Caspase Activation",[1]; 16 genes in series,3
same,"genes changed, GO: 0000723 Telomere Maintenance",[1]; 17 genes in series,3
same,"genes changed, GO: 0030041 Actin Filament Polymerization",[1]; 17 genes in series,3
same,"genes changed, GO: 0043280 Positive Regulation Of Caspase Activity",[1]; 17 genes in series,3
same,"genes changed, GO: 0051016 Barbed-End Actin Filament Capping",[1]; 17 genes in series,3
same,"genes changed, GO: 0008299 Isoprenoid Biosynthetic Process",[1]; 19 genes in series,3
same,"genes changed, GO: 0006446 Regulation Of Translational Initiation",[1]; 20 genes in series,4
same,"genes changed, GO: 0043281 Regulation Of Caspase Activity",[1]; 27 genes in series,5
same,"genes changed, GO: 0008064 Regulation Of Actin Polymerization And/Or Depolymerization",[1]; 30 genes in series,4
same,"genes changed, GO: 0050673 Epithelial Cell Proliferation",[1]; 30 genes in series,4
same,"genes changed, GO: 0005977 Glycogen Metabolic Process",[1]; 31 genes in series,7
same,"genes changed, GO: 0030832 Regulation Of Actin Filament Length",[1]; 31 genes in series,4
same,"genes changed, GO: 0051258 Protein Polymerization",[1]; 32 genes in series,6
same,"genes changed, GO: 0006112 Energy Reserve Metabolic Process",[1]; 35 genes in series,7
same,"genes changed, GO: 0048193 Golgi Vesicle Transport",[1]; 37 genes in series,6
same,"genes changed, GO: 0008154 Actin Polymerization And/Or Depolymerization",[1]; 39 genes in series,6
same,"genes changed, GO: 0006413 Translational Initiation",[1]; 40 genes in series,6
same,"genes changed, GO: 0043085 Positive Regulation Of Enzyme Activity",[1]; 40 genes in series,5
same,"genes changed, GO: 0045454 Cell Redox Homeostasis",[1]; 40 genes in series,6
same,"genes changed, GO: 0005976 Polysaccharide Metabolic Process",[1]; 42 genes in series,9
same,"genes changed, GO: 0007018 Microtubule-Based Movement",[1]; 72 genes in series,9
same,"genes changed, GO: 0007178 Transmembrane Receptor Protein Serine/Threonine Kinase Signaling Pathway",[1]; 75 genes in series,7
same,"genes changed, GO: 0006511 Ubiquitin-Dependent Protein Catabolic Process",[1]; 109 genes in series,9
same,"genes changed, GO: 0019941 Modification-Dependent Protein Catabolic Process",[1]; 111 genes in series,9
same,"genes changed, GO: 0006457 Protein Folding",[1]; 124 genes in series,13
same,"genes changed, GO: 0007017 Microtubule-Based Process",[1]; 155 genes in series,12
same,"genes changed, GO: 0006605 Protein Targeting",[1]; 161 genes in series,12
same,"genes changed, GO: 0008380 RNA Splicing",[1]; 162 genes in series,12
same,"genes changed, GO: 0006281 DNA Repair",[1]; 178 genes in series,13
same,"genes changed, GO: 0006974 Response To DNA Damage Stimulus",[1]; 217 genes in series,15
same,"genes changed, GO: 0044262 Cellular Carbohydrate Metabolic Process",[1]; 221 genes in series,18
same,"genes changed, GO: 0050790 Regulation Of Catalytic Activity",[1]; 241 genes in series,21
same,"genes changed, GO: 0005975 Carbohydrate Metabolic Process",[1]; 316 genes in series,21
same,"genes changed, GO: 0007264 Small Gtpase Mediated Signal Transduction",[1]; 320 genes in series,22
same,"genes changed, GO: 0006412 Translation",[1]; 338 genes in series,25
same,"genes changed, GO: 0006512 Ubiquitin Cycle",[1]; 356 genes in series,27
same,"genes changed, GO: 0006886 Intracellular Protein Transport",[1]; 357 genes in series,26
same,"genes changed, GO: 0006091 Generation Of Precursor Metabolites And Energy",[1]; 390 genes in series,24
same,"genes changed, GO: 0007010 Cytoskeleton Organization And Biogenesis",[1]; 403 genes in series,26
same,"genes changed, GO: 0046907 Intracellular Transport",[1]; 523 genes in series,43
same,"genes changed, GO: 0009059 Macromolecule Biosynthetic Process",[1]; 525 genes in series,35
same,"genes changed, GO: 0015031 Protein Transport",[1]; 581 genes in series,38
same,"genes changed, GO: 0045184 Establishment Of Protein Localization",[1]; 610 genes in series,38
same,"genes changed, GO: 0051649 Establishment Of Cellular Localization",[1]; 653 genes in series,45
same,"genes changed, GO: 0008104 Protein Localization",[1]; 663 genes in series,38
same,"genes changed, GO: 0044249 Cellular Biosynthetic Process",[1]; 710 genes in series,45
same,"genes changed, GO: 0006996 Organelle Organization And Biogenesis",[1]; 897 genes in series,53
same,"genes changed, GO: 0009058 Biosynthetic Process",[1]; 979 genes in series,60
same,"share of the 220 biological processes with affected genes, calorie restricted mice",[1]; mouse cardiac tissue,failed to affect any genes in any of these processes
same,cardiomyocyte apoptosis,cardiomyocytes; 2.5 and 25 mg/kg,significantly reduced
same,number of apoptotic cardiomyocytes,cardiomyocytes; above 50 mg/kg,significant increased
same,myocardial infarct size,[2]; 2.5 and 25 mg/kg,significantly reduced
same,myocardial infarct size,[2]; above 50 mg/kg,significant increased
same,"principal component analysis of miRNA expression, IR treated samples",[3]; FIG. 15C,remarkably similar to BL vehicle sample
same,"miR-21 expression, up",[3]; IR,61.5 fold
same,"miR-21 expression, up",[3]; basal level,391.4 fold
same,miRNAs whose up or down regulation in IR control was reversed in the opposite direction,"[3]; of the 25 miRNAs of Table 11, both treatments",11

# From patent US20140011889A1, “Resveratrol-Containing Compositions and Methods of Use for Cardiac-Related Diseases” (Resveratrol Partners, LLC, priority 2010, published 2014)
